In patent US20260314597A1, “A NOVEL APPROACH TO INTERFERE IN THE PHENYLPROPANOID BIOSYNTHETIC PATHWAY TO REDUCE PINK-RIB DISORDER IN FRESH LETTUCE” (University of Florida Research Foundation, Inc., priority 2022, published 2026):
“Also recorded” adds a separate entry of the source.

How the values were obtained:
[1] = test system: fresh lettuce midribs; settings: literature treatments; cited from earlier work
[2] = test system: PPO; settings: role: substrate; lettuce tissues; cited from earlier work
[3] = test system: PAL; settings: naringenin; cited from earlier work
[4] = naringenin; in vitro for lettuce; cited from earlier work
[5] = test system: iceberg and Romaine lettuce midribs; assay: Visual (subjective) pink rib development in wounded, immersed lettuce midribs stored at 5° C.; assay type: in vivo; settings: for reduction of pink rib severity: naringenin (1.8 mM) and serotonin, reason for not imaging
Procedure: Six preliminary experiments were performed to determine treatment conditions for the three final experiments reported here. It was determined that the method developed by Cantwell (2016) induced pink rib discoloration in lettuce midribs during storage at 5° C. via mimicking mechanical damage and was, therefore, selected for use in all preliminary and final tests. […] Concentrations evaluated were: L-cysteine (0.4, 0.8, 2.1, 4.1, 8.3 mM), naringenin (0.2, 0.4, 0.9, 1.8, 3.7 mM), serotonin (2.8, 5.7 mM), and melatonin (0.2, 0.4, 1.1, 2.2, 4.3 mM) (data not presented). […] Therefore, this study employed the one or two concentrations for each compound with the greatest potential efficacy in three independent tests, Test 1 to 3 (Table 1).
For Test 1, the evaluations for pink rib development, protein quantification, and enzyme activity were conducted with Romaine and iceberg lettuce heads (36 heads per type; cultivars unknown) purchased (February 2020) upon arrival at a local grocery store in Gainesville, FL, and immediately transported to the Postharvest Horticulture Laboratory at the University of Florida in Gainesville, FL. For Test 2, metabolite extraction and detection were conducted with commercially grown, harvested, and cooled Romaine (‘Tall Guzmaine’) and iceberg (‘Chosen’) lettuce (December 2020) grown in Belle Glade, FL. For Test 3, untargeted metabolomics was performed using commercially grown, harvested, and cooled Romaine (‘Manatee’) lettuce grown in Belle Glade, FL (April 2021). To keep the lettuce head samples cool while preventing freeze damage during transport, a 3- to 6-inch layer of crushed ice was placed on the bottom of each 114-L cooler. A piece of waxed, corrugated fiberboard was placed on top of the ice prior to packing with the lettuce samples for transport the same day to the Postharvest Horticulture Laboratory in Gainesville (approximately 4 h distant).
In all tests, experimental setup began immediately upon arrival to the laboratory. 90 outer leaves were randomly selected from 18 to 22 lettuce heads that met commercial and damage-free quality standards. A midrib segment (12.5 cm) was excised from the center of each leaf and excess leaf blade tissue was trimmed parallel to the midrib. This procedure was adapted from the wounding procedure of Cantwell (2016). Each midrib was then partially sliced transversally at 1.3-cm increments along the midrib. Midribs (n=15) were immediately immersed for 30 s in one of five treatment solutions: deionized water (wounded control), L-cysteine (4.1 mM), naringenin (1.8 mM) with 20% dimethyl sulfoxide (DMSO), serotonin (2.8 or 5.7 mM) or melatonin (4.3 mM) with 0.50% DMSO. Immediately following immersion, the midribs for each treatment were patted dry using paper towels and placed (n=5) in a breathable, high-density polyethylene bag (n=3) (Narrow Profile Produce Bags [14×18 inches] Model No. S-19156, Uline®, Pleasant Prairie, WI). Unwounded control midribs were stored in the same manner. To allow for direct comparison, each cut site on each midrib was assigned an initial discoloration value on day 1 based on the coloration of the rib. Samples were stored at 5° C. with 95-98% relative humidity (RH) for 5 d, simulating commercial storage.
All chemicals were of laboratory or reagent grade from Alfa Aesar (Thermo Fisher Scientific, Ward Hill, MA, USA) or Phyto Technology Laboratories (Shawnee Mission, KS, USA). L-cysteine (4.1 mM) solution was prepared by dissolving […] in 100 ml deionized water. Naringenin (1.8 mM) solution was prepared by dissolving […] in 20 mL of DMSO and diluting to a 100 mL volume with deionized water. A stock solution of serotonin (5.7 mM) was prepared by dissolving 100 mg of serotonin in 100 ml of deionized water; a second solution of serotonin (2.8 mM) was prepared by diluting the stock solution two-fold with deionized water. […]

[6] = test system: apple and pear discs; settings: serotonin 1 mM, 4° C., cited from earlier work

Structure (SMILES): CC1=CC1 [1-methylcyclopropene]
- effectiveness in reducing pink rib discoloration [1]: slightly effective or completely ineffective

Structure (SMILES): CCCCCCc1ccc(O)cc1O [4-hexylresorcinol]
- effectiveness in reducing pink rib discoloration [1]: slightly effective or completely ineffective

Structure (SMILES): [Cl-].[Na+] [NaCl]
- effectiveness in reducing pink rib discoloration [1]: slightly effective or completely ineffective

Structure (SMILES): O=C(/C=C/c1ccc(O)c(O)c1)O[C@@H]1C[C@](O)(C(=O)O)C[C@@H](O)[C@H]1O [chlorogenic acid]
- specificity to PPO [2]: greatest specificity to PPO

Structure (SMILES): O=C(O)CC(O)(CC(=O)O)C(=O)O [citric acid]
- effectiveness in reducing pink rib discoloration [1]: slightly effective or completely ineffective

Structure (SMILES): C=C [ethylene]
- effectiveness in reducing pink rib discoloration [1]: slightly effective or completely ineffective

Structure (SMILES): O=C(O)CN(CCN(CC(=O)O)CC(=O)O)CC(=O)O [ethylenediaminetetracetic acid (EDTA), ethylenediaminetetracetic acid]
- effectiveness in reducing pink rib discoloration [1]: slightly effective or completely ineffective

Structure (SMILES): N[C@@H](CCC(=O)N[C@@H](CS)C(=O)NCC(=O)O)C(=O)O [glutathione]
- effectiveness in reducing pink rib discoloration [1]: slightly effective or completely ineffective

Structure (SMILES): O=C1C[C@@H](c2ccc(O)cc2)Oc2cc(O)cc(O)c21 [naringenin]
- PAL activity and subsequent development of phenylpropanoids [3]: represses PAL activity and subsequent development of phenylpropanoids
- antioxidant capacity (FRAP) [4]: increase in antioxidant capacity
- pink rib severity (visual rating) ([5]; iceberg, naringenin 1.8 mM, 5 d at 5° C.): moderately severe (4=moderately severe)
- pink rib severity (visual rating) ([5]; iceberg, naringenin immersion up to 3.7 mM, 5 d at 5° C.): moderately severe (4=moderately severe)
- reduction of pink rib severity [5]: unsuccessful reduction of pink rib severity; also recorded: equally unsuccessful
- effect on pink rib ([5]; naringenin up to 3.7 mM, 5 d at 5° C.): did not successfully reduce pink rib

Structure (SMILES): O=C(O)c1ccc(O)cc1 [p-hydroxybenzoic acid]
- effectiveness in reducing pink rib discoloration [1]: slightly effective or completely ineffective

Structure (SMILES): NCCc1c[nH]c2ccc(O)cc12 [serotonin]
- extension of bright appearance ([6]; 30-min submersion): up to 6 months
- browning inhibition compared with ascorbic acid ([6]; 30 min): more effective than ascorbic acid
- duration of browning inhibition ([6]; 30 min): up to 24 h
- pink rib severity (visual rating) ([5]; Romaine, serotonin 2.8 or 5.7 mM, 5 d at 5° C.): moderately severe (4=moderately severe)
- pink rib severity (visual rating) ([5]; iceberg, serotonin 2.8 or 5.7 mM, 5 d at 5° C.): moderate (3=moderate)
- reduction of pink rib severity [5]: unsuccessful reduction of pink rib severity
- effect on pink rib development ([5]; serotonin, iceberg and Romaine, 5 d at 5° C.): did not reduce pink rib development in either lettuce type
